Our source for the MIC values is ChEMBL document CHEMBL1649221, “Novel genetic environment of the carbapenem-hydrolyzing beta-lactamase KPC-2 among Enterobacteriaceae in China” (2009).

Converted amounts (≈) assume the structure as drawn. Some results are limits rather than exact numbers.

Format in all cases: functional
Assay [1] has as its system Klebsiella pneumoniae. Put plainly: Antimicrobial activity against Klebsiella pneumoniae PFGE clone D expressing beta-lactamase KPC-2 by Etest.
Assay [2] deals with Klebsiella pneumoniae. Put plainly: Antimicrobial activity against Klebsiella pneumoniae PFGE clone A expressing beta-lactamase KPC-2 by Etest.
The subject of assay [3] is Klebsiella oxytoca. The assay can be described thus: Antimicrobial activity against Klebsiella oxytoca expressing beta-lactamase KPC-2 by Etest.
For assay [4], the system named is Klebsiella pneumoniae. The assay can be described thus: Antimicrobial activity against Klebsiella pneumoniae PFGE clone B expressing beta-lactamase KPC-2 by Etest.
Assay [5] deals with Klebsiella pneumoniae. Put plainly: Antimicrobial activity against Klebsiella pneumoniae PFGE clone C expressing beta-lactamase KPC-2 by Etest.
The test system of assay [6] is Klebsiella pneumoniae. The assay can be described thus: Antimicrobial activity against Klebsiella pneumoniae PFGE clone F expressing beta-lactamase KPC-2 by Etest.
Assay [7] deals with Enterobacter cloacae. Put plainly: Antimicrobial activity against Enterobacter cloacae expressing beta-lactamase KPC-2 by Etest.
Assay [8] relates to Klebsiella pneumoniae. Put plainly: Antimicrobial activity against Klebsiella pneumoniae PFGE clone E expressing beta-lactamase KPC-2 by Etest.
For assay [9], the system named is Klebsiella pneumoniae. Put plainly: Antimicrobial activity against Klebsiella pneumoniae PFGE clone B expressing beta-lactamase KPC-2 by Etest in presence of beta-lactamase inhibitor Tazobactam.
Assay [10] relates to Klebsiella oxytoca. The assay can be described thus: Antimicrobial activity against Klebsiella oxytoca expressing beta-lactamase KPC-2 by Etest in presence of beta-lactamase inhibitor Tazobactam.
Assay [11] relates to Klebsiella pneumoniae. Put plainly: Antimicrobial activity against Klebsiella pneumoniae PFGE clone F expressing beta-lactamase KPC-2 by Etest in presence of beta-lactamase inhibitor Tazobactam.
In assay [12] the test system is Klebsiella pneumoniae. Put plainly: Antimicrobial activity against Klebsiella pneumoniae PFGE clone A expressing beta-lactamase KPC-2 by Etest in presence of beta-lactamase inhibitor Tazobactam.
Assay [13] relates to Enterobacter cloacae. The assay can be described thus: Antimicrobial activity against Enterobacter cloacae expressing beta-lactamase KPC-2 by Etest in presence of beta-lactamase inhibitor Tazobactam.
The test system of assay [14] is Klebsiella pneumoniae. The assay can be described thus: Antimicrobial activity against Klebsiella pneumoniae PFGE clone E expressing beta-lactamase KPC-2 by Etest in presence of beta-lactamase inhibitor Tazobactam.
In assay [15] the test system is Klebsiella pneumoniae. Put plainly: Antimicrobial activity against Klebsiella pneumoniae PFGE clone D expressing beta-lactamase KPC-2 by Etest in presence of beta-lactamase inhibitor Tazobactam.
For assay [16], the system named is Klebsiella pneumoniae. The assay can be described thus: Antimicrobial activity against Klebsiella pneumoniae PFGE clone C expressing beta-lactamase KPC-2 by Etest in presence of beta-lactamase inhibitor Tazobactam.

On to `CC(C)(O/N=C(\C(=O)N[C@@H]1C(=O)N2C(C(=O)[O-])=C(C[n+]3ccccc3)CS[C@H]12)c1csc(N)n1)C(=O)O` [CEFTAZIDIME], for which the MIC against Klebsiella pneumoniae [1] is more than 32 µg/mL; in the assay with Klebsiella pneumoniae [2], more than 256 µg/mL; in the assay on Klebsiella oxytoca [3], 128 µg/mL (≈ 234 µM); in the assay on Klebsiella pneumoniae [4], more than 128 µg/mL; with Klebsiella pneumoniae [5], more than 256 µg/mL; in the assay on Klebsiella pneumoniae [6], more than 256 µg/mL. Besides, the MIC was more than 256 µg/mL with Enterobacter cloacae [7] and more than 32 µg/mL against Klebsiella pneumoniae [8].

Consider `C[C@@H](O)[C@H]1C(=O)N2C(C(=O)O)=C(S[C@@H]3CN[C@H](C(=O)Nc4cccc(C(=O)O)c4)C3)[C@H](C)[C@H]12`, for which the MIC in the assay with Klebsiella pneumoniae [1] is more than 16 µg/mL; in the assay on Klebsiella pneumoniae [2] it was more than 32 µg/mL; in the assay with Klebsiella oxytoca [3], more than 16 µg/mL; against Klebsiella pneumoniae [4], more than 32 µg/mL; in the assay on Klebsiella pneumoniae [5] it was more than 32 µg/mL; in the assay with Klebsiella pneumoniae [6], more than 32 µg/mL. Further, the MIC in the assay on Enterobacter cloacae [7] and with Klebsiella pneumoniae [8] was more than 32 µg/mL each time.

`CCN1CCN(C(=O)N[C@@H](C(=O)N[C@@H]2C(=O)N3[C@@H]2SC(C)(C)[C@@H]3C(=O)O)c2ccccc2)C(=O)C1=O` [PIPERACILLIN]: the MIC in the assay on Klebsiella pneumoniae [9], with Klebsiella oxytoca [10], in the assay on Klebsiella pneumoniae [11], with Klebsiella pneumoniae [12], with Enterobacter cloacae [13] and with Klebsiella pneumoniae [14] was more than 256 µg/mL throughout. For the same molecule, the minimum inhibitory concentration (MIC) with Klebsiella pneumoniae [15] and in the assay with Klebsiella pneumoniae [16] was more than 256 µg/mL throughout.

Regarding `C[C@@H](O)[C@H]1C(=O)N2C(C(=O)O)=C(SCCNC=N)C[C@H]12` [IMIPENEM ANHYDROUS], the MIC against Klebsiella pneumoniae [1] was more than 2 µg/mL; in the assay on Klebsiella pneumoniae [2], more than 32 µg/mL; with Klebsiella oxytoca [3], more than 32 µg/mL; in the assay on Klebsiella pneumoniae [4], more than 16 µg/mL; against Klebsiella pneumoniae [5], more than 32 µg/mL; in the assay with Klebsiella pneumoniae [6], more than 32 µg/mL. In addition, the minimum inhibitory concentration (MIC) is more than 32 µg/mL against Enterobacter cloacae [7] and more than 16 µg/mL against Klebsiella pneumoniae [8].

Turning to `C[C@@H](O)[C@H]1C(=O)N2C(C(=O)O)=C(S[C@@H]3CN[C@H](C(=O)N(C)C)C3)[C@H](C)[C@H]12` [MEROPENEM], the minimal inhibitory concentration (MIC) in the assay on Klebsiella pneumoniae [1] is more than 2 µg/mL; in the assay on Klebsiella pneumoniae [2] it was more than 32 µg/mL; in the assay on Klebsiella oxytoca [3] it was more than 32 µg/mL; in the assay with Klebsiella pneumoniae [4], more than 32 µg/mL; in the assay with Klebsiella pneumoniae [5] it was more than 32 µg/mL; in the assay with Klebsiella pneumoniae [6], more than 32 µg/mL. Moreover, the values for the minimum inhibitory concentration (MIC) against Enterobacter cloacae [7] and in the assay with Klebsiella pneumoniae [8] were more than 32 µg/mL and more than 16 µg/mL, respectively.

In the case of `NCC[C@H](O)C(=O)N[C@@H]1C[C@H](N)[C@@H](O[C@H]2O[C@H](CN)[C@@H](O)[C@H](O)[C@H]2O)[C@H](O)[C@H]1O[C@H]1O[C@H](CO)[C@@H](O)[C@H](N)[C@H]1O` [AMIKACIN], the minimum inhibitory concentration (MIC) is more than 256 µg/mL in the assay on Klebsiella pneumoniae [1]; more than 256 µg/mL against Klebsiella pneumoniae [2]; 2 µg/mL (≈ 3.42 µM) against Klebsiella oxytoca [3]; more than 1 µg/mL with Klebsiella pneumoniae [4]; more than 1 µg/mL in the assay with Klebsiella pneumoniae [5]; 2 µg/mL (≈ 3.42 µM) in the assay with Klebsiella pneumoniae [6]. Besides, the MIC with Enterobacter cloacae [7] was more than 256 µg/mL; with Klebsiella pneumoniae [8], more than 1 µg/mL.

Regarding COLISTIN, the minimum inhibitory concentration (MIC) in the assay on Klebsiella pneumoniae [1] came to 0.5 µg/mL; against Klebsiella pneumoniae [2] it was 0.25 µg/mL; in the assay with Klebsiella oxytoca [3], 1 µg/mL; against Klebsiella pneumoniae [4], 0.5 µg/mL; in the assay on Klebsiella pneumoniae [5], 0.5 µg/mL; with Klebsiella pneumoniae [6] it was 0.5 µg/mL. Besides, the MIC with Enterobacter cloacae [7] and in the assay with Klebsiella pneumoniae [8] was 0.5 µg/mL throughout.

As to `CO[C@@]1(NC(=O)Cc2cccs2)C(=O)N2C(C(=O)O)=C(COC(N)=O)CS[C@@H]21` [CEFOXITIN], the minimal inhibitory concentration (MIC) in the assay on Klebsiella pneumoniae [1] was more than 64 µg/mL; with Klebsiella pneumoniae [2], more than 256 µg/mL; against Klebsiella oxytoca [3], more than 256 µg/mL; in the assay with Klebsiella pneumoniae [4], more than 128 µg/mL; in the assay with Klebsiella pneumoniae [5], more than 128 µg/mL; against Klebsiella pneumoniae [6] it was more than 32 µg/mL. Moreover, the figures for the minimum inhibitory concentration (MIC) against Enterobacter cloacae [7] and with Klebsiella pneumoniae [8] were more than 256 µg/mL and 32 µg/mL (≈ 74.9 µM), respectively.

`CN(C)c1cc(NC(=O)CNC(C)(C)C)c(O)c2c1C[C@H]1C[C@H]3[C@H](N(C)C)C(O)=C(C(N)=O)C(=O)[C@@]3(O)C(O)=C1C2=O` [TIGECYCLINE]: the MIC turned out to be 0.5 µg/mL (≈ 0.854 µM) with Klebsiella pneumoniae [1]; 2 µg/mL (≈ 3.41 µM) with Klebsiella pneumoniae [2]; 2 µg/mL (≈ 3.41 µM) in the assay on Klebsiella oxytoca [3]; 0.5 µg/mL (≈ 0.854 µM) against Klebsiella pneumoniae [4]; 0.5 µg/mL (≈ 0.854 µM) with Klebsiella pneumoniae [5]; 0.38 µg/mL (≈ 0.649 µM) in the assay on Klebsiella pneumoniae [6]. The MIC in the assay with Enterobacter cloacae [7] is 2 µg/mL (≈ 3.41 µM); against Klebsiella pneumoniae [8], 1 µg/mL (≈ 1.71 µM).

In general, MIC refers to the least concentration at which growth counts as inhibited.
